# Data from ChEMBL document CHEMBL1127912, “The contribution to binding of the pyranoside substituents in the excised binding domain of FK-506” (Bioorg Med Chem Lett, 1994).
# Target: Peptidyl-prolyl cis-trans isomerase FKBP1A (Homo sapiens, UniProt P62942)
# Test: Ability to displace radiolabeled FK-506 derivative from FK506 binding protein 12
# Sequence of Peptidyl-prolyl cis-trans isomerase FKBP1A (P62942 whole entry): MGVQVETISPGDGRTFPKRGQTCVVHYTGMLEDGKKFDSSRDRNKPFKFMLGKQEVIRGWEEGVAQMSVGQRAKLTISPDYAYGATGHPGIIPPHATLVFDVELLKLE
row,SMILES,Kd [µM]
1,C=CCCC[C@H](OC(=O)[C@@H]1CCCCN1C(=O)C(=O)[C@]1(O)O[C@H](COC)[C@@H](OC)C[C@H]1C)/C(C)=C/[C@@H]1CC[C@@H](O)[C@H](OC)C1,0.01
2,C=CCCC[C@H](OC(=O)[C@@H]1CCCCN1C(=O)C(=O)[C@@]1(O)CC[C@H](OC)[C@@H](COC)O1)/C(C)=C/[C@@H]1CC[C@@H](O)[C@H](OC)C1,40
3,C=CCCC[C@H](OC(=O)[C@@H]1CCCCN1C(=O)C(=O)[C@@]1(O)CCCCO1)/C(C)=C/[C@@H]1CC[C@@H](O)[C@H](OC)C1,29
